Measurements as given in ChEMBL document CHEMBL1828549, “Novel C-4'' modified azithromycin analogs with remarkably enhanced activity against erythromycin-resistant Streptococcus pneumoniae: the synthesis and antimicrobial evaluation” (2011).
Converted amounts (≈) assume the structure as drawn.

Assays:
Streptococcus pneumoniae [1] = test: Antibacterial activity against erythromycin-susceptible Streptococcus pneumoniae ATCC 49619 by the broth microdilution method; format: functional
Streptococcus pneumoniae [2] = test: Antibacterial activity against erythromycin-resistant Streptococcus pneumoniae B1 expressing erm gene by the broth microdilution method; format: functional
Streptococcus pneumoniae [3] = test: Antibacterial activity against erythromycin-resistant Streptococcus pneumoniae A22072 expressing mef gene by the broth microdilution method; format: functional
Streptococcus pneumoniae [4] = test: Antibacterial activity against erythromycin-resistant Streptococcus pneumoniae AB11 expressing erm and mef gene by the broth microdilution method; format: functional
Staphylococcus aureus [5] = test: Antibacterial activity against erythromycin-susceptible Staphylococcus aureus ATCC 25923 by the broth microdilution method; format: functional
Staphylococcus aureus [6] = test: Antibacterial activity against penicillin-resistant Staphylococcus aureus by the broth microdilution method; format: functional
Staphylococcus aureus [7] = test: Antibacterial activity against […] Staphylococcus aureus ATCC 29213 by the broth microdilution method; format: functional
Streptococcus pneumoniae [8] = test: Ratio of erythromycin-A MIC to compound MIC for erythromycin-resistant Streptococcus pneumoniae A22072 expressing mef gene; format: functional
Streptococcus pneumoniae [9] = test: Ratio of azithromycin MIC to compound MIC for erythromycin-resistant Streptococcus pneumoniae A22072 expressing mef gene; format: functional
Streptococcus pneumoniae [10] = test: Ratio of MIC for Streptococcus pneumoniae AB11 expressing erm and mef gene to MIC of reference compound for the same strain
Streptococcus pneumoniae [11] = test: Ratio of MIC for erythromycin-resistant Streptococcus pneumoniae B1 expressing erm gene to MIC of reference compound for the same strain

Row | SMILES | MIC (Streptococcus pneumoniae [1]) [µg/mL] | MIC (Streptococcus pneumoniae [2]) [µg/mL] | MIC (Streptococcus pneumoniae [3]) [µg/mL] | MIC (Streptococcus pneumoniae [4]) [µg/mL] | MIC (Staphylococcus aureus [5]) [µg/mL] | MIC (Staphylococcus aureus [6]) [µg/mL] | MIC (Staphylococcus aureus [7]) [µg/mL] | Ratio (Streptococcus pneumoniae [8]) | Ratio (Streptococcus pneumoniae [9]) | Ratio (Streptococcus pneumoniae [10]) | Ratio (Streptococcus pneumoniae [11])
1 | CC[C@H]1OC(=O)[C@H](C)[C@@H](O[C@H]2C[C@@](C)(OC)[C@@H](OC(=O)NNC(=O)c3ccc(C)cc3)[C@H](C)O2)[C@H](C)[C@@H](O[C@@H]2O[C@H](C)C[C@H](N(C)C)[C@H]2O)[C@](C)(O)C[C@@H](C)CN(C)[C@H](C)[C@H]2OC(=O)O[C@@]21C | 1 (≈ 1.05 µM) | 2 (≈ 2.1 µM) | 0.12 (≈ 0.126 µM) | 16 (≈ 16.8 µM) | 4 (≈ 4.21 µM) | 4 (≈ 4.21 µM) | 4 (≈ 4.21 µM) | 64 | 32 | 16 | 64
2 | CC[C@H]1OC(=O)[C@H](C)[C@@H](O[C@H]2C[C@@](C)(OC)[C@@H](OC(=O)NCCCCNC(=O)c3cc([N+](=O)[O-])cc([N+](=O)[O-])c3)[C@H](C)O2)[C@H](C)[C@@H](O[C@@H]2O[C@H](C)C[C@H](N(C)C)[C@H]2O)[C@](C)(O)C[C@@H](C)CN(C)[C@H](C)[C@H]2OC(=O)O[C@@]21C | 0.12 (≈ 0.111 µM) | 1 (≈ 0.923 µM) | 0.12 (≈ 0.111 µM) | 8 (≈ 7.39 µM) | 2 (≈ 1.85 µM) | 16 (≈ 14.8 µM) | 4 (≈ 3.69 µM) | 64 | 32 | 32 | 128
3 | CC[C@H]1OC(=O)[C@H](C)[C@@H](O[C@H]2C[C@@](C)(OC)[C@@H](OC(=O)NCCNC(=O)c3cc([N+](=O)[O-])cc([N+](=O)[O-])c3)[C@H](C)O2)[C@H](C)[C@@H](O[C@@H]2O[C@H](C)C[C@H](N(C)C)[C@H]2O)[C@](C)(O)C[C@@H](C)CN(C)[C@H](C)[C@H]2OC(=O)O[C@@]21C | 0.12 (≈ 0.114 µM) | 1 (≈ 0.948 µM) | 0.12 (≈ 0.114 µM) | 8 (≈ 7.58 µM) | 16 (≈ 15.2 µM) | 1 (≈ 0.948 µM) | 8 (≈ 7.58 µM) | 64 | 32 | 32 | 128
4 | CC[C@H]1OC(=O)[C@H](C)[C@@H](O[C@H]2C[C@@](C)(OC)[C@@H](OC(=O)NCCNC(=O)c3ccc(Cl)cc3)[C@H](C)O2)[C@H](C)[C@@H](O[C@@H]2O[C@H](C)C[C@H](N(C)C)[C@H]2O)[C@](C)(O)C[C@@H](C)CN(C)[C@H](C)[C@H]2OC(=O)O[C@@]21C | 0.5 (≈ 0.5 µM) | 8 (≈ 8 µM) | 1 (≈ 1 µM) | 32 (≈ 32 µM) | 4 (≈ 4 µM) | 2 (≈ 2 µM) | 16 (≈ 16 µM) | – | – | – | –
5 | CC[C@H]1OC(=O)[C@H](C)[C@@H](O[C@H]2C[C@@](C)(OC)[C@@H](OC(=O)NCCNC(=O)c3ccc(OC)cc3)[C@H](C)O2)[C@H](C)[C@@H](O[C@@H]2O[C@H](C)C[C@H](N(C)C)[C@H]2O)[C@](C)(O)C[C@@H](C)CN(C)[C@H](C)[C@H]2OC(=O)O[C@@]21C | 4 (≈ 4.02 µM) | 32 (≈ 32.2 µM) | 4 (≈ 4.02 µM) | 64 (≈ 64.3 µM) | 4 (≈ 4.02 µM) | 4 (≈ 4.02 µM) | 16 (≈ 16.1 µM) | – | – | – | –
6 | CC[C@H]1OC(=O)[C@H](C)[C@@H](O[C@H]2C[C@@](C)(OC)[C@@H](OC(=O)NCCNC(=O)c3ccc(C)cc3)[C@H](C)O2)[C@H](C)[C@@H](O[C@@H]2O[C@H](C)C[C@H](N(C)C)[C@H]2O)[C@](C)(O)C[C@@H](C)CN(C)[C@H](C)[C@H]2OC(=O)O[C@@]21C | 1 (≈ 1.02 µM) | 8 (≈ 8.17 µM) | 0.25 (≈ 0.255 µM) | 16 (≈ 16.3 µM) | 4 (≈ 4.08 µM) | 4 (≈ 4.08 µM) | 16 (≈ 16.3 µM) | – | – | – | –
7 | CC[C@H]1OC(=O)[C@H](C)[C@@H](O[C@H]2C[C@@](C)(OC)[C@@H](OC(=O)NCCNC(=O)c3ccc(F)cc3)[C@H](C)O2)[C@H](C)[C@@H](O[C@@H]2O[C@H](C)C[C@H](N(C)C)[C@H]2O)[C@](C)(O)C[C@@H](C)CN(C)[C@H](C)[C@H]2OC(=O)O[C@@]21C | 1 (≈ 1.02 µM) | 4 (≈ 4.07 µM) | 1 (≈ 1.02 µM) | 32 (≈ 32.5 µM) | 16 (≈ 16.3 µM) | 2 (≈ 2.03 µM) | 16 (≈ 16.3 µM) | – | – | – | –
8 | CC[C@H]1OC(=O)[C@H](C)[C@@H](O[C@H]2C[C@@](C)(OC)[C@@H](OC(=O)NNC(=O)c3ccc(Cl)cc3)[C@H](C)O2)[C@H](C)[C@@H](O[C@@H]2O[C@H](C)C[C@H](N(C)C)[C@H]2O)[C@](C)(O)C[C@@H](C)CN(C)[C@H](C)[C@H]2OC(=O)O[C@@]21C | 1 (≈ 1.03 µM) | 32 (≈ 32.9 µM) | 0.25 (≈ 0.257 µM) | 64 (≈ 65.9 µM) | 2 (≈ 2.06 µM) | 16 (≈ 16.5 µM) | 4 (≈ 4.12 µM) | – | – | – | –
9 | CC[C@H]1OC(=O)[C@H](C)[C@@H](O[C@H]2C[C@@](C)(OC)[C@@H](OC(=O)NCCCCNC(=O)c3ccc([N+](=O)[O-])cc3)[C@H](C)O2)[C@H](C)[C@@H](O[C@@H]2O[C@H](C)C[C@H](N(C)C)[C@H]2O)[C@](C)(O)C[C@@H](C)CN(C)[C@H](C)[C@H]2OC(=O)O[C@@]21C | 0.12 (≈ 0.116 µM) | 2 (≈ 1.93 µM) | 0.5 (≈ 0.482 µM) | 16 (≈ 15.4 µM) | 4 (≈ 3.85 µM) | 32 (≈ 30.8 µM) | 4 (≈ 3.85 µM) | – | – | – | –
10 | CC[C@H]1OC(=O)[C@H](C)[C@@H](O[C@H]2C[C@@](C)(OC)[C@@H](OC(=O)NNC(=O)c3cc([N+](=O)[O-])cc([N+](=O)[O-])c3)[C@H](C)O2)[C@H](C)[C@@H](O[C@@H]2O[C@H](C)C[C@H](N(C)C)[C@H]2O)[C@](C)(O)C[C@@H](C)CN(C)[C@H](C)[C@H]2OC(=O)O[C@@]21C | 0.5 (≈ 0.487 µM) | 16 (≈ 15.6 µM) | 0.25 (≈ 0.243 µM) | 32 (≈ 31.2 µM) | 4 (≈ 3.89 µM) | 4 (≈ 3.89 µM) | 4 (≈ 3.89 µM) | – | – | – | –
11 | CC[C@H]1OC(=O)[C@H](C)[C@@H](O[C@H]2C[C@@](C)(OC)[C@@H](OC(=O)NNC(=O)c3ccc(OC)cc3)[C@H](C)O2)[C@H](C)[C@@H](O[C@@H]2O[C@H](C)C[C@H](N(C)C)[C@H]2O)[C@](C)(O)C[C@@H](C)CN(C)[C@H](C)[C@H]2OC(=O)O[C@@]21C | 4 (≈ 4.14 µM) | 16 (≈ 16.5 µM) | 0.25 (≈ 0.258 µM) | 64 (≈ 66.2 µM) | 2 (≈ 2.07 µM) | 8 (≈ 8.27 µM) | 32 (≈ 33.1 µM) | – | – | – | –
12 | CC[C@H]1OC(=O)[C@H](C)[C@@H](O[C@H]2C[C@@](C)(OC)[C@@H](OC(=O)NCCNC(=O)c3ccc(OC)c(OC)c3)[C@H](C)O2)[C@H](C)[C@@H](O[C@@H]2O[C@H](C)C[C@H](N(C)C)[C@H]2O)[C@](C)(O)C[C@@H](C)CN(C)[C@H](C)[C@H]2OC(=O)O[C@@]21C | 2 (≈ 1.95 µM) | 32 (≈ 31.2 µM) | 4 (≈ 3.9 µM) | 64 (≈ 62.4 µM) | 4 (≈ 3.9 µM) | 8 (≈ 7.8 µM) | 32 (≈ 31.2 µM) | – | – | – | –
